Assay results as given in article PMC8113725, “Structure–activity relationship of ipglycermide binding to phosphoglycerate mutases” (The Journal of Biological Chemistry, 2021).
Where two headings read alike, the source gives them in different places. Bridge positions count the residues as written; N and C are the ends. Square brackets hold non-standard residues; d marks the D form. Peptide text beside a SMILES is read from it. Abu = CC[C@H](N)C(=O)O

How the values were obtained:
D. immitis iPGM = D. immitis iPGM (Dirofilaria immitis, UniProt F4ZE01); experiment: biochemical
E. coli iPGM [1] = target: T1, E. coli iPGM (Escherichia coli, UniProt P37689); experiment: biochemical; settings: […]
C. elegans iPGM = C. elegans iPGM (Caenorhabditis elegans, UniProt G5EFZ1); experiment: SPR binding kinetics and saturation binding, biotinylated iPGM on Biotin CAPture chip (Biacore S200)
B. malayi iPGM = target: T2, B. malayi iPGM (Brugia malayi, UniProt Q4VWF8); experiment: biochemical; format: binding; settings: for Kd: Supplementary Table 5, SPR, B.m. iPGM, unit inferred
T2 sequence (Q4VWF8 1-515): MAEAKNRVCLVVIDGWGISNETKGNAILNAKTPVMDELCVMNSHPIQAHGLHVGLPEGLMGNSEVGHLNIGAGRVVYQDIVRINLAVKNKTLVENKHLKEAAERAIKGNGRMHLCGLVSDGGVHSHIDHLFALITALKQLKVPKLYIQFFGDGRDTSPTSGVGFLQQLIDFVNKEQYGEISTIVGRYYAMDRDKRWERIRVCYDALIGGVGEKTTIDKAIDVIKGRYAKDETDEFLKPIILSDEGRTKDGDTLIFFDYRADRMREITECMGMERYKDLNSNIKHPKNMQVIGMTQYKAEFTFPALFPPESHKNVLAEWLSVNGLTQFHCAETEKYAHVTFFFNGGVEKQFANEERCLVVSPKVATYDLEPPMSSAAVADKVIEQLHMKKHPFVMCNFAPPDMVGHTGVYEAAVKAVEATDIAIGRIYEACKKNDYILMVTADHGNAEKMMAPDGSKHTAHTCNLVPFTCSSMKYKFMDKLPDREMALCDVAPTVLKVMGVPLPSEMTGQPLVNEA

E. coli iPGM [2] = target: T1, E. coli iPGM; experiment: SPR binding kinetics and saturation binding, biotinylated iPGM on Biotin CAPture chip (Biacore S200); settings: for koff / kon: LoQ = limit of quantitation; for Kd: unit inferred
[3] = Supplementary Table 5, SPR, E.c. iPGM
[4] = SPR, 25 °C, global fit to 1:1 binding model

SMILES: CC(C)C[C@H](NC(=O)[C@H](Cc1ccc(O)cc1)NC(=O)[C@@H]1CSCC(=O)N[C@H](Cc2ccc(O)cc2)C(=O)N[C@@H](CC(=O)O)C(=O)N[C@@H](Cc2ccc(O)cc2)C(=O)N2CCC[C@H]2C(=O)NCC(=O)N[C@@H](CC(=O)O)C(=O)N[C@@H](Cc2ccc(O)cc2)C(=O)N1)C(=O)N[C@@H](Cc1ccc(O)cc1)C(=O)NCC(=O)NCC(=O)N[C@@H](Cc1c[nH]cn1)C(N)=O [Ce-2 T13G, C14H]
- IC50 (D. immitis iPGM; Di iPGM Ave IC50 (M)): 1.12e-07 M
- IC50 (E. coli iPGM [1]): 12700 nM

SMILES: CC[C@H](C)[C@@H]1NC(=O)[C@H](Cc2ccc(O)cc2)NC(=O)[C@H](CC(=O)O)NC(=O)[C@@H](Cc2ccc(O)cc2)NC(=O)CSC[C@@H](C(=O)N[C@@H](Cc2ccc(O)cc2)C(=O)N[C@@H](CC(C)C)C(=O)N[C@@H](Cc2ccc(O)cc2)C(N)=O)NC(=O)[C@H](Cc2ccc(O)cc2)NC(=O)[C@H](CC(=O)O)NC(=O)CNC1=O [Ce-2d P4I]
- IC50 (D. immitis iPGM; Di iPGM Ave IC50 (M)): 2.21e-07 M
- IC50 (E. coli iPGM [1]): 21900 nM

SMILES: CC(C)C[C@H](NC(=O)[C@H](Cc1ccccc1)NC(=O)[C@@H]1CSCC(=O)N[C@H](Cc2ccc(O)cc2)C(=O)N[C@@H](CC(=O)O)C(=O)N[C@@H](Cc2ccc(O)cc2)C(=O)N2CCC[C@H]2C(=O)NCC(=O)N[C@@H](CC(=O)O)C(=O)N[C@@H](Cc2ccc(O)cc2)C(=O)N1)C(=O)N[C@@H](Cc1ccc(O)cc1)C(=O)NCC(=O)N[C@H](C(=O)N[C@@H](CS)C(N)=O)[C@@H](C)O [Ce-2 Y9F] ({CH2CO}-[dY]DYPGDYCFLYGTC-NH2; thioether N-8)
- IC50 (D. immitis iPGM; Di iPGM Ave IC50 (M)): 2.69e-09 M
- IC50 (D. immitis iPGM; IC50 (M)): 2.79e-09 M
- IC50 (E. coli iPGM [1]): 815 nM

SMILES: CC(C)C[C@H](NC(=O)[C@H](Cc1ccc(O)cc1)NC(=O)[C@@H]1CSCC(=O)N[C@H](Cc2ccc(O)cc2)C(=O)N[C@@H](CC(=O)O)C(=O)N[C@@H](Cc2ccc(O)cc2)C(=O)N2CCC[C@H]2C(=O)NCC(=O)N[C@@H](CC(=O)O)C(=O)N[C@@H](Cc2ccc(F)cc2)C(=O)N1)C(=O)N[C@@H](Cc1ccc(O)cc1)C(=O)NCC(=O)N[C@H](C(=O)N[C@@H](CS)C(N)=O)[C@@H](C)O [Ce-2 Y7(4F)F]
- IC50 (D. immitis iPGM; Di iPGM Ave IC50 (M)): 1.67e-09 M
- IC50 (E. coli iPGM [1]): 12800 nM

SMILES: CC(C)C[C@H](NC(=O)[C@H](Cc1ccc(O)cc1)NC(=O)[C@@H]1CSCC(=O)N[C@H](Cc2ccc(O)cc2)C(=O)N[C@@H](CC(=O)O)C(=O)N[C@@H](Cc2ccc(O)cc2)C(=O)N2CCC[C@H]2C(=O)NCC(=O)N[C@@H](CC(=O)O)C(=O)N[C@@H](Cc2ccc(O)cc2)C(=O)N1)C(=O)N[C@@H](Cc1ccc(O)cc1)C(=O)NCCCC(=O)N[C@@H](CS)C(N)=O [Ce-2 [12-13]GABA]
- IC50 (D. immitis iPGM; Di iPGM Ave IC50 (M)): 2.85e-09 M
- IC50 (E. coli iPGM [1]): 2980 nM

SMILES: CC(C)C[C@H](NC(=O)[C@H](Cc1ccc(O)cc1)NC(=O)[C@@H]1CSCC(=O)N[C@H](Cc2ccc(O)cc2)C(=O)N[C@@H](CC(=O)O)C(=O)N[C@@H](Cc2ccc(O)cc2)C(=O)N2CCC[C@H]2C(=O)N[C@@H](CC(C)C)C(=O)N[C@@H](CC(=O)O)C(=O)N[C@@H](Cc2ccc(O)cc2)C(=O)N1)C(=O)N[C@@H](Cc1ccc(O)cc1)C(N)=O [Ce-2d G5L]
- IC50 (E. coli iPGM [1]): 13200 nM

SMILES: COc1ccc(C[C@H](NC(=O)[C@H](CC(C)C)NC(=O)[C@H](Cc2ccc(O)cc2)NC(=O)[C@@H]2CSCC(=O)N[C@H](Cc3ccc(O)cc3)C(=O)N[C@@H](CC(=O)O)C(=O)N[C@@H](Cc3ccc(O)cc3)C(=O)N3CCC[C@H]3C(=O)NCC(=O)N[C@@H](CC(=O)O)C(=O)N[C@@H](Cc3ccc(O)cc3)C(=O)N2)C(N)=O)cc1 [Ce-2d Y11(4OMe)F]
- IC50 (D. immitis iPGM; Di iPGM Ave IC50 (M)): 6.05e-08 M
- IC50 (E. coli iPGM [1]): 12800 nM

SMILES: CC(C)C[C@H](NC(=O)[C@H](Cc1ccc(O)cc1)NC(=O)[C@@H]1CSCC(=O)N[C@H](Cc2ccc(O)cc2)C(=O)N[C@@H](CC(=O)O)C(=O)N[C@@H](Cc2ccc(O)cc2)C(=O)N2CCC[C@H]2C(=O)NCC(=O)N[C@@H](CC(=O)O)C(=O)N[C@@H](Cc2ccc(O)cc2)C(=O)N1)C(=O)N[C@@H](Cc1ccc(O)cc1)C(=O)NCC(=O)N[C@@H](Cc1c[nH]cn1)C(=O)N[C@@H](CS)C(N)=O [Ce-2 T13H]
- Kd (C. elegans iPGM): 0.0264 nM
- koff (C. elegans iPGM): 1.98e-05 s⁻¹
- kon (C. elegans iPGM): 752000 M⁻¹ s⁻¹
- koff (B. malayi iPGM): 0.000587 s⁻¹
- kon (B. malayi iPGM): 1.06e+06 M⁻¹ s⁻¹
- Kd (B. malayi iPGM): 0.555 nM
- koff (E. coli iPGM [2]; [3]): 0.0144 s⁻¹
- kon (E. coli iPGM [2]; [3]): 103000 M⁻¹ s⁻¹
- Kd (E. coli iPGM [2]; [3]): 62.7 nM
- IC50 (D. immitis iPGM; IC50 (M)): 3.77e-09 M

SMILES: CC(C)C[C@H](NC(=O)[C@H](Cc1ccc(O)cc1)NC(=O)[C@@H]1CSCC(=O)N[C@H](Cc2ccc(O)cc2)C(=O)N[C@@H](CC(=O)O)C(=O)N[C@@H](Cc2ccc(O)cc2)C(=O)N2CCC[C@H]2C(=O)NCC(=O)N[C@@H](CC(=O)O)C(=O)N[C@@H](Cc2ccccc2)C(=O)N1)C(=O)N[C@@H](Cc1ccc(O)cc1)C(=O)NCC(=O)N[C@H](C(=O)N[C@@H](CS)C(N)=O)[C@@H](C)O [Ce-2 Y7F]
- IC50 (D. immitis iPGM; Di iPGM Ave IC50 (M)): 1.73e-09 M
- IC50 (D. immitis iPGM; IC50 (M)): 1.78e-09 M
- IC50 (E. coli iPGM [1]): 1170 nM

SMILES: CC(C)C[C@H](NC(=O)[C@H](Cc1ccc(O)cc1)NC(=O)[C@@H]1CSCC(=O)N[C@H](Cc2ccc(O)cc2)C(=O)N[C@@H](CC(N)=O)C(=O)N[C@@H](Cc2ccc(O)cc2)C(=O)N2CCC[C@H]2C(=O)NCC(=O)N[C@@H](CC(=O)O)C(=O)N[C@@H](Cc2ccc(O)cc2)C(=O)N1)C(=O)N[C@@H](Cc1ccc(O)cc1)C(=O)NCC(=O)N[C@H](C(=O)N[C@@H](CS)C(N)=O)[C@@H](C)O [Ce-2 D2N] ({CH2CO}-[dY]NYPGDYCYLYGTC-NH2; thioether N-8)
- IC50 (D. immitis iPGM; Di iPGM Ave IC50 (M)): 1.99e-09 M
- IC50 (D. immitis iPGM; IC50 (M)): 1.87e-09 M
- IC50 (E. coli iPGM [1]): 170 nM

SMILES: CC(C)C[C@H](NC(=O)[C@H](Cc1ccc(O)cc1)NC(=O)[C@@H]1CSCC(=O)N[C@H](Cc2ccc(O)cc2)C(=O)N[C@@H](CC(=O)O)C(=O)N[C@@H](Cc2ccc(O)cc2)C(=O)N2CCC[C@H]2C(=O)NCC(=O)N[C@@H](CC(=O)O)C(=O)N[C@@H](Cc2ccc(O)cc2)C(=O)N1)C(=O)N[C@@H](Cc1ccc(O)cc1)C(=O)NCC(=O)N[C@@H](CO)C(=O)N[C@@H](CS)C(N)=O [Ce-2 Thr13Ser]
- Kd (C. elegans iPGM): 0.0287 nM
- koff (C. elegans iPGM): 7.83e-05 s⁻¹
- kon (C. elegans iPGM): 2.86e+06 M⁻¹ s⁻¹
- koff (C. elegans iPGM; [4]): 0.00017 s⁻¹
- kon (C. elegans iPGM; [4]): 2.9e+06 M⁻¹ s⁻¹
- koff (B. malayi iPGM): 7.84e-05 s⁻¹
- kon (B. malayi iPGM): 1.47e+06 M⁻¹ s⁻¹
- Kd (B. malayi iPGM): 0.0853 nM
- koff (B. malayi iPGM; [4]): 7.8e-05 s⁻¹
- kon (B. malayi iPGM; [4]): 1.6e+06 M⁻¹ s⁻¹
- koff (E. coli iPGM [2]; SPR, 25 °C, global fit to 1:1 binding model, read-out: koff): 0.00033 s⁻¹
- kon (E. coli iPGM [2]; SPR, 25 °C, global fit to 1:1 binding model, read-out: kon): 240000 M⁻¹ s⁻¹
- koff (E. coli iPGM [2]; [3]): 0.000333 s⁻¹
- kon (E. coli iPGM [2]; [3]): 236000 M⁻¹ s⁻¹
- Kd (E. coli iPGM [2]; [3]): 1.31 nM
- IC50 (D. immitis iPGM; IC50 (M)): 2.56e-09 M

SMILES: CC[C@@H]1NC(=O)[C@@H](Cc2ccc(O)cc2)NC(=O)CSC[C@@H](C(=O)N[C@@H](Cc2ccc(O)cc2)C(=O)N[C@@H](CC(C)C)C(=O)N[C@@H](Cc2ccc(O)cc2)C(=O)NCC(=O)N[C@H](C(=O)N[C@@H](CS)C(N)=O)[C@@H](C)O)NC(=O)[C@H](Cc2ccc(O)cc2)NC(=O)[C@H](CC(=O)O)NC(=O)CNC(=O)[C@@H]2CCCN2C(=O)[C@H](Cc2ccc(O)cc2)NC1=O [Ce-2 D2Abu] ({CH2CO}-[dY][Abu]YPGDYCYLYGTC-NH2; thioether N-8)
- Kd (C. elegans iPGM): 0.0157 nM
- koff (C. elegans iPGM): 4.55e-05 s⁻¹
- kon (C. elegans iPGM): 3.04e+06 M⁻¹ s⁻¹
- koff (B. malayi iPGM): 0.000125 s⁻¹
- kon (B. malayi iPGM): 561000 M⁻¹ s⁻¹
- Kd (B. malayi iPGM): 0.223 nM
- koff (E. coli iPGM [2]; [3]): 0.00202 s⁻¹
- kon (E. coli iPGM [2]; [3]): 270000 M⁻¹ s⁻¹
- Kd (E. coli iPGM [2]; [3]): 25.4 nM
- IC50 (D. immitis iPGM; Di iPGM Ave IC50 (M)): 1.52e-09 M
- IC50 (D. immitis iPGM; IC50 (M)): 1.57e-09 M

SMILES: CC(C)C[C@H](NC(=O)[C@H](Cc1ccc(O)cc1)NC(=O)[C@@H]1CSCC(=O)N[C@H](Cc2ccc(O)cc2)C(=O)N[C@@H](CC(=O)O)C(=O)N[C@@H](Cc2ccc(O)cc2)C(=O)N2CCC[C@H]2C(=O)NCC(=O)N[C@@H](CC(=O)O)C(=O)N[C@@H](Cc2ccc(O)cc2)C(=O)N1)C(=O)N[C@@H](Cc1ccc(O)cc1)C(=O)NCC(=O)NCC(=O)NO [Ce-2 T13G, C14NHOH]
- Kd (C. elegans iPGM): 16.3 nM
- koff (C. elegans iPGM): 0.00251 s⁻¹
- kon (C. elegans iPGM): 197000 M⁻¹ s⁻¹
- koff (B. malayi iPGM): 0.0284 s⁻¹
- kon (B. malayi iPGM): 110000 M⁻¹ s⁻¹
- Kd (B. malayi iPGM): 245 nM
- koff (E. coli iPGM [2]; [3]): > LOQ
- kon (E. coli iPGM [2]; [3]): > LOQ
- IC50 (D. immitis iPGM; Di iPGM Ave IC50 (M)): 1.84e-07 M
